How the values were obtained:
[1] = system: rats subjected to the CUMS protocol; assay: Sucrose preference test (anhedonia) in rats subjected to CUMS; format: in vivo, rat; settings: treated during CUMS
Procedure: The following stimuli were administered each week in a random order: two periods (7 h and 17 h) of 45° cage tilt; soaked cage for 17 h; food deprivation (24 h) and water deprivation (12 h), twice a week; paired housing (17 h); overnight illumination during the dark phase, twice a week; noise (85 dB) in the room for 5 h, twice a week; flashing light (60 flashes/min) for 6 h, three times a week (AbdAlla et al., Biomed. Res. Int. 2015:917156 (2015); El-faramawy et al., Pharmacol. Biochem. Behav. 91, 339-344 (2009)). The sucrose preference test (2% sucrose in water) was done immediately after a period of food and water deprivation.
Symptoms of depression and anhedonia induced by the CUMS protocol as a typical model of depression were determined by the sucrose preference test. For the sucrose preference test, rats (or mice) were trained to consume a sucrose solution (2%), which was put in the cage with a bottle of water. The sucrose consumption was determined at baseline for two weeks before the CUMS protocol (1 test per week, for 1 h, at 9-10 a.m.), and after 4 weeks of CUMS immediately after a period of food (24 h) and water (12 h) deprivation. The ratio of the sucrose-to-water consumption was determined. […] Similarly, the treatment effect of illustrative compounds on prevention of symptoms of depression was assessed by the sucrose preference test. […]

[2] = Safety and tolerability in healthy human research participants (phase-1 study); format: in vivo
Procedure: Study design: The study was a three-part phase-1, randomized, placebo-controlled study of Compound-1F. The primary end-point was safety and tolerability. Secondary objectives were plasma pharmacokinetics data (part-1, part-2, part-3) and peripheral blood mononuclear cell MPP1 status (part-3).
The first part (part-1) was a single ascending dose-effect study with three cohorts of 4 healthy research participants each, who received a single dose of 20 mg, 40 mg or 60 mg in subsequent cohorts. Three drug-treated and one placebo-treated subjects were randomized in each cohort (2 males, 2 females; age: 35-65 years). After completion of safety assessment, blood was drawn for analysis of pharmacokinetics data.
In the second part (part-2) of the study, the daily dose was increased every two days until the final dose of 60 mg/day was reached, i.e. the daily dose was 20 mg on day-1 and day-2, 40 mg on day-3 and day-4, and 60 mg on day-5 until day-14. Blood was drawn before study begin for analysis of laboratory parameters and on day-14 for analysis of laboratory parameters and determination of pharmacokinetics data, at the indicated time points after administration of the last dose of 60 mg. All study participants (n=10; 7 males, 3 females; Caucasians; age: 37-66 years; 8 participants received drug, and two received placebo) were healthy and had the possibility to withdraw from the study at any time. All study participants wanted to complete the study.
In the third part (part-3) of the study, a cohort of 8 healthy elderly voluntary research participants (7 males, 1 female; age 60-73 years; all Caucasians) received a daily oral dose of 60 mg of Compound-1F for 28 days (6 participants received drug, 2 placebo). In part-3 of the study, blood was drawn before study begin for analysis of clinical laboratory parameters and MPP1 status, and on day-28 for analysis of laboratory parameters and MPP1 status, and 24 h after the last drug intake for measurement of serum concentration of Compound-1F. All participants of part-3 had the possibility to withdraw from the study at any time but all study participants wanted to complete the study.
The study participants were under the medical supervision of the Rabaa El Adaweya Medical Central Hospital, Cairo, Egypt (Clinical study director: Dr. Raafat Mahmood Fawzy). […] One participant in the placebo group and 1 participant in the drug treatment group (part-2 of the study) reported softer stools beginning on day-3 after drug/placebo intake. This side effect ended after completion of the study, and was most likely due to the intake of mannitol, which was used as an additive for formulation of study drug and placebo. There were no other adverse effects in part-1, part-2 and part-3 of the study.

[3] = healthy humans, 14 days of repeated once daily oral dosing

SMILES	sucrose consumption in sucrose preference test ([1]; 16-month-old rats, 4 weeks CUMS, vs non-stressed control group)	CUMS-induced anhedonia in sucrose preference test ([1]; young rats (aged 4 months))	clinical laboratory parameters and cardiovascular examination data (blood pressure, heart rate) ([2]; all research participants, during and after the study (observation period 4 weeks))	drug-related adverse events (safety assessment) ([2]; elderly participants, 28 days once daily 60 mg)	clinical laboratory findings ([2]; elderly participants, before and after 28 days of once daily 60 mg)	percentage of neutrophils and lymphocytes [2, 3]	total number of white blood cells [2, 3]	hematologic parameters (Hb, HCT, MCV, MCHC, RBCs) before vs after treatment ([2]; healthy humans, once daily 60 mg, 14 days of study)	treatment related adverse effects (safety assessment) ([2]; healthy humans, oral Compound-1F, single ascending dose 20-60 mg)	kidney (serum urea, creatinine) and liver (AST, ALT) function parameters ([2]; healthy humans, repeated once daily 60 mg/d)	participants in the drug treatment group reporting softer stools ([2]; part-2 of the study, beginning on day-3, attributed to mannitol) [participant]
O=C(C1=C(O)C(c2ccccc2)N(c2ccc3c(c2)OCO3)C1=O)C1CC1 (centres unmarked) [Compound-1, 1-(1,3-benzodioxol-5-yl)-4-(cyclopropane-carbonyl)-3-hydroxy-2-phenyl-2H-pyrrol-5-one]	not significantly different from the non-stressed control group	prevented the development of CUMS-induced anhedonia and symptoms of depression	–	–	–	–	–	–	–	–	–
O=C(C1=C(O)C(c2ccc(F)cc2)N(c2ccc3c(c2)OCO3)C1=O)C1CC1 (centres unmarked) [Compound-1F, 1-(1,3-Benzodioxol-5-yl)-4-(cyclopropanecarbonyl)-2-(4-fluorophenyl)-3-hydroxy-2H-pyrrol-5-one]	–	–	within the normal range	no drug-related adverse events	within the normal range	within the normal range	not altered	not significantly different	no treatment related adverse effects	within the normal range	1

Reference: patent publication US20210015793A1, “COMPOUNDS FOR TREATING CNS- AND NEURODEGENERATIVE DISEASES” (ETH ZURICH, priority 2018, published 2021)
